Assay results taken from publication PMC8662641, “Site-Specific Labeling of Endogenous Proteins Using CoLDR Chemistry” (Journal of the American Chemical Society, 2021).
Several values for one entry are separate records, joined by “and”; a condition that tells them apart may be missing. Identical values can stand only once.

Assays:
BTK-1h = target: T1, BTK-1h (Homo sapiens, UniProt Q06187); experiment: High-throughput screening with 1h-labeled BTK; type: binding
T1 construct: The BTK kinase domain was diluted to 2 μM in the buffer, and 2 μM 1h was added; made in house
Method: The collection was composed of BTK binding compounds obtained in our previous luminescence screen[37] (Data set S2). […] The resulting BTK-1h (50 μL) was added to the inhibitors.

BTK = BTK (Homo sapiens, UniProt Q06187); set-up: BTK kinase domain was expressed and purified as previously reported; made in house; method as in Reddi et al., J. Am. Chem. Soc. 2021, 143 (13), 4979–4992; conditions: ref Reddi et al., J. Am. Chem. Soc. 2021, 143 (13), 4979–4992; cited from earlier work
[1] = Dataset S2A, 200 μM compound, BTK-1h, 32 °C, 10 min

BTK, sequence (Q06187 402-655 limits assumed): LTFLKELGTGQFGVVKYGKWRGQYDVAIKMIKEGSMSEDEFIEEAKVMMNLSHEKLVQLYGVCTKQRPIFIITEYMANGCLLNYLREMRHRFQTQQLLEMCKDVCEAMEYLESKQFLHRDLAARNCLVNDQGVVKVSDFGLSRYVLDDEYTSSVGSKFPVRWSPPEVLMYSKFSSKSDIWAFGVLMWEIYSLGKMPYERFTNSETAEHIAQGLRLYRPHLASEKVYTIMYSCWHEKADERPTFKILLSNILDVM
T1 sequence (Q06187 402-655): as the sequence (Q06187 402-655 limits assumed) above

Row | Compound | FI (650)/FI (620) (BTK-1h; [1]) | FI (BTK-1h)/FI (BTK-1h+Inhibitor) at 620 nm (BTK-1h; [1]) | BTK Inhibition reported in luminescence assay* (BTK) | FI (650)/FI (620) (BTK-1h; Dataset S2C, BTK-1h with inhibitor) | FI (BTK-1h)/FI (BTK-1h+Inhibitor) at 620 nm (BTK-1h; Dataset S2B, 200 μM inhibitor added to BTK-1h (2 μm))
1 | Cc1c[nH]c(/C=C2\C(=O)Nc3ccccc32)c1CCC(=O)O [PCM-0216652-001] | 1.505 | 1.061 | 83.4 |  | 
2 | O=C(O)c1cc(O)c2c(c1)[C@@H]([C@H]1c3cc(C(=O)O)cc(O)c3C(=O)c3c(O[C@@H]4O[C@H](CO)[C@@H](O)[C@H](O)[C@H]4O)cccc31)c1cccc(O[C@@H]3O[C@H](CO)[C@@H](O)[C@H](O)[C@H]3O)c1C2=O [PCM-0086913-003, Sennoside B] |  | 1.82 | 84.1 | 1.82 | 
3 | CCS(=O)(=O)N1CCN(c2ccc(Nc3ncc(C(N)=O)c(NC4CC4)n3)cc2)CC1.Cl [PCM-0215389-001] | 1.233 | 1.12 | 85.5 |  | 
4 | COc1cc2nccc(Oc3ccc(NC(=O)Nc4cc(C)on4)c(Cl)c3)c2cc1OC [PCM-0094927-002] | 1.123 | 1.05 | 84.1 |  | 
5 | CN1CCN(Cc2ccc(-c3cnc4[nH]cc(-c5ccc6[nH]ccc6c5)c4c3)cc2)CC1 [PCM-0215377-001] | 1.4774 | 1.04 | 111 |  | 
6 | CC/C(=C(/c1ccc(/C=C/C(=O)O)cc1)c1ccc2[nH]ncc2c1)c1ccc(F)cc1Cl [PCM-0216010-001] | 1.58 | 1.142 | 81.1 |  | 
7 | Nc1cccc(-c2cc3c(Oc4cccc(O)c4)ncnc3[nH]2)c1 [PCM-0095147-003] | 1.616 | 1.107 | 82.1 |  | 
8 | Cc1ccc(NC(=O)Nc2cc(C(F)(F)F)ccc2F)cc1Nc1ccc2c(c1)NC(=O)/C2=C\c1ccc[nH]1 [PCM-0215372-001] | 1.5507 | 1.003 | 115.9 |  | 
9 | COc1cc2nccc(Oc3ccc(NC(=O)C4(C(=O)Nc5ccc(F)cc5)CC4)cc3)c2cc1OC [PCM-0094920-004] | 1.097 and 1.08 | 1.121 and 1.125 | 123.4 |  | 
10 | O=C(c1ccccc1O)c1[nH]c(Cl)c(Cl)c1-n1c(C(=O)c2ccccc2O)cc(Cl)c1Cl [PCM-0215850-001] | 1.151 | 1.016 | 117.4 |  | 
11 | O=[N+]([O-])c1ccc(Sc2cccc[n+]2[O-])c2nonc12 [PCM-0215705-001, NSC228155] | 7.1 | 1.02 | 73.4 |  | 7.1
12 | CS(=O)(=O)O.O=C(Nc1cccc(Cl)c1)Nc1ncc(CCNc2ncnc3ccsc23)s1 [PCM-0094983-002] | 1.066 | 1.085 | 73.1 |  | 
13 | NCC(=O)Nc1ccc(-n2nc(C(F)(F)F)cc2-c2ccc3c(ccc4ccccc43)c2)cc1 [PCM-0094886-003] | 1.037 | 1.095 | 70.3 |  | 
14 | CN1CCN(c2ccc(C(=O)Nc3n[nH]c4ccc(Cc5cc(F)cc(F)c5)cc34)c(NC3CCOCC3)c2)CC1 [PCM-0215551-001] | 0.9755 | 1.038 | 102.8 |  | 
15 | CC(=O)Nc1nc(-c2cccc(NS(=O)(=O)c3cccc4c(N(C)C)cccc34)c2)cs1 [PCM-0215679-001] | 1.491 | 1.033 | 97.3 |  | 
16 | OC1CCC(Oc2cccc3cnc(Nc4ccc5nc[nH]c5c4)nc23)CC1 (stereo not shown) [PCM-0215798-001] | 1.285 | 1.0276 | 66.2 |  | 
17 | Nc1ccc(O)cc1 [PCM-0216110-001] | 1.311 | 1.005 | 82.6 |  | 
18 | COc1cc(/C=C/C(=O)CC(=O)/C=C/c2ccc(O)cc2)ccc1O [PCM-0216521-001] | 2.134 | 0.9621 | 110.4 |  | 
19 | Cl.Cl.Cl.O[C@@H](COc1cccc2ncccc12)CN1CCN(C2c3ccccc3[C@@H]3[C@H](c4ccccc42)C3(F)F)CC1 (stereo partly shown) [PCM-0095161-003] | 0.9335 | 1.115 | 102.7 |  | 
20 | C=CC(=O)Nc1cccc(Oc2nc(Nc3ccc(N4CCN(C)CC4)cc3)ncc2Cl)c1 [PCM-0095023-002] | 1.149 | 1.02 | 91.7 |  | 
21 | O=C(Nc1cccc2c(=O)cc(-c3nn[nH]n3)oc12)c1ccc(OCCCCc2ccccc2)cc1 [PCM-0095155-002] | 1.503 | 1.506 | 73.8 |  | 
22 | COc1c(-c2ccc3cc(NS(C)(=O)=O)ccc3c2)cc(-n2ccc(=O)[nH]c2=O)cc1C(C)(C)C [PCM-0216081-001] | 0.9511 | 1.031 | 73.4 |  | 
23 | COc1nc2ccc(Br)cc2cc1[C@@H](c1ccccc1)[C@@](O)(CCN(C)C)c1cccc2ccccc12.O=C(O)/C=C/C(=O)O [PCM-0215093-001] | 1.148 | 1.067 | 84 |  | 
24 | COC[C@H]1C[C@@H](c2ncc(-c3ccc4c(c3)COc3cc5c(ccc6[nH]c([C@@H]7CC[C@H](C)N7C(=O)[C@@H](NC(=O)OC)C(C)C)nc65)cc3-4)[nH]2)N(C(=O)[C@H](NC(=O)OC)c2ccccc2)C1 [PCM-0214920-001] | 0.8577 | 1.025 | 56 |  | 
25 | C#CC[C@H](c1nc2cc(Cl)ccc2c(=O)n1Nc1ccccc1)N(CCCN)C(=O)c1cccc(Cl)c1F [PCM-0095802-002] | 1.024 | 1.031 | 52.5 |  | 
